Experimental findings from article PMC6264423, “Phytochemical and Cytotoxic Investigations of Curcuma mangga Rhizomes” (Molecules, 2011) are described below.

The test system of one data set is colon cell line (HT-29). Nature of the data set: in-vitro neutral red cytotoxicity assay, HT-29. Particulars: Homo sapiens, mean ± SD of three replicates. It counts as cell-based.
Data set [1] has as its system colon cell line (HCT 116). The data set is described as follows: in-vitro neutral red cytotoxicity assay, HCT 116. It counts as cell-based. Particulars: Homo sapiens, mean ± SD of three replicates.
Experimental: (§1) In-vitro neutral red cytotoxicity assay: All cancer cell lines were purchased from the American Type Culture Collection (ATCC, USA), medium like RPMI 1640, McCOY’S 5A, Eagle Minimum Essential Medium (EMEM) from Sigma-Aldrich, USA. The supplements or antibiotics such as foetal bovine serum, penicillin/streptomycin (100 μg/mL), amphotericin B (50 μg/mL), tripsin-EDTA (100X) were purchased from PAA Lab, Austria as well as sodium pyruvate (11 mg/mL) from Sigma-Aldrich, USA. The cells were cultured in a Shel Lab water-jacketed CO2 incubator with 25 cm^3 tissue culture flasks (Nunc, Denmark), which was observed routinely under inverted microscope (Leica DMI3000 B, Germany) for any contamination and seeded into 96-well flat bottom microtiter plate (Nunc, Denmark). The extract or pure compounds were dissolved in dimethyl sulfoxide (DMSO, Molecular Biology Grade, >99.9%) from Sigma-Aldrich, USA. The 96-well microtiter plate was agitated rapidly on a microtiter plate incubator shaker (LT Biomax 500) and absorbance of eluted dye measured at 540 nm using a ELISA microplate reader (EMax microplate reader of Molecular Devices, USA). Cell lines such as MCF-7, A549, Ca Ski and HT-29 were maintained in RPMI 1640 medium, HCT 116 in McCOY’S 5A Medium, KB and MRC-5 cells in Eagle Minimum Essential Medium (EMEM). All of these media were supplemented with 10% foetal bovine serum (FBS), penicillin/streptomycin, amphotericin B and only additional sodium pyruvate in EMEM. The cells were cultured in tissue culture flask in 5% CO2 incubator kept at 37 °C in a humidified atmosphere and observed routinely under inverted microscope from any contaminations. Each fresh medium was replaced every 2 or 3 days until cell confluence was achieved and the cells were detached by using tripsin-EDTA.
Data set [2] relates to non-cancer human fibroblast cell line (MRC-5). Nature of the data set: in-vitro neutral red cytotoxicity assay, MRC-5. Particulars: MRC5, read-out: IC50 values, MRC-5.
Experimental: as §1
The test system of data set [3] is hormone-dependent breast cell line (MCF-7). The data set is described as follows: in-vitro neutral red cytotoxicity assay, MCF-7. Conditions: Homo sapiens, MCF7, mean ± SD of three replicates. It counts as cell-based.
Experimental: as §1
For a further data set, the system named is lung cell line (A549). The data set is described as follows: in-vitro neutral red cytotoxicity assay, A549. It counts as cell-based. Particulars: Homo sapiens, mean ± SD of three replicates.
Data set [4] concerns cervical cell line (Ca Ski). The data set is described as follows: in-vitro neutral red cytotoxicity assay, Ca Ski. It counts as cell-based. Conditions: Homo sapiens, mean ± SD of three replicates.
Experimental: as §1
The test system of data set [5] is nasopharyngeal epidermoid cell line (KB). Nature of the data set: in-vitro neutral red cytotoxicity assay, KB. Format: cell-based. Conditions: Homo sapiens, mean ± SD of three replicates.
Experimental: as §1
Data set [6] concerns human cancer cell lines (MCF-7, KB, A549, Ca Ski, HCT 116, HT-29). The data set is described as follows: in-vitro neutral red cytotoxicity assay, panel of six cancer cell lines. It counts as cell-based.
Experimental: In-vitro neutral red cytotoxicity assay: All cancer cell lines were purchased from the American Type Culture Collection (ATCC, USA), medium like RPMI 1640, McCOY’S 5A, Eagle Minimum Essential Medium (EMEM) from Sigma-Aldrich, USA. The supplements or antibiotics such as foetal bovine serum, penicillin/streptomycin (100 μg/mL), amphotericin B (50 μg/mL), tripsin-EDTA (100X) were purchased from PAA Lab, Austria as well as sodium pyruvate (11 mg/mL) from Sigma-Aldrich, USA. The cells were cultured in a Shel Lab water-jacketed CO2 incubator with 25 cm^3 tissue culture flasks (Nunc, Denmark), which was observed routinely under inverted microscope (Leica DMI3000 B, Germany) for any contamination and seeded into 96-well flat bottom microtiter plate (Nunc, Denmark). The extract or pure compounds were dissolved in dimethyl sulfoxide (DMSO, Molecular Biology Grade, >99.9%) from Sigma-Aldrich, USA. The 96-well microtiter plate was agitated rapidly on a microtiter plate incubator shaker (LT Biomax 500) and absorbance of eluted dye measured at 540 nm using a ELISA microplate reader (EMax microplate reader of Molecular Devices, USA). Cell lines such as MCF-7, A549, Ca Ski and HT-29 were maintained in RPMI 1640 medium, HCT 116 in McCOY’S 5A Medium, KB and MRC-5 cells in Eagle Minimum Essential Medium (EMEM). […]
In data set [7] the test system is non-cancer human fibroblast cell line (MRC-5).
Experimental: as §1

Converted amounts (≈) assume the structure as drawn.

Experimental for colon cell line (HT-29): as §1
Experimental for lung cell line (A549): as §1

Regarding `C=C1CC[C@H]2C(C)(C)CCC[C@]2(C)[C@H]1CC=C(C=O)CC(=O)O` (stereo in doubt) [Compound 3, zerumin A], the IC50 (usually the point on the concentration scale where inhibition reaches its midpoint) in the data set on colon cell line (HT-29) is 14.9 ± 0.4 µg/mL (≈ 46.8 µM); in data set [1], 9.3 ± 0.5 µg/mL (≈ 29.2 µM); in data set [2], 16.2 ± 0.25 µg/mL (≈ 50.9 µM); in data set [3], 8.7 ± 0.29 µg/mL (≈ 27.3 µM); with lung cell line (A549), 9.2 ± 0.62 µg/mL (≈ 28.9 µM); in [4], 14.2 ± 0.06 µg/mL (≈ 44.6 µM). Besides, in data set [5], the IC50 is 11.7 ± 1.15 µg/mL (≈ 36.7 µM).
On to `C=C1CCC2C(C)(C)CCC[C@]2(C)C1/C=C/C(C)=O` (stereo partly shown) [Compound 2, (E)-15,16-bisnorlabda-8(17),11-dien-13-one], for which the half-inhibitory concentration (IC50) (in the data set with colon cell line (HT-29); in data set [1]; in data set [2]; in [3]; in the data set with lung cell line (A549); in data set [4]) was more than 100 µg/mL throughout. For the same molecule, the IC50 in data set [5] is more than 100 µg/mL. Also, in [6] (all investigated human cancer cell lines), the “cytotoxic activity on the investigated human cancer cell lines (in words)” value was “no cytotoxic activity”.
As to Ethyl acetate, in [7], the “effect on the normal human fibroblast cell line (in words)” value is given as “caused no damage”.
With `C=C1CCC2C(C)(C)CCC[C@]2(C)C1C/C=C(/C=O)CC=O` (stereo partly shown) [Compound 1, (E)-labda-8(17),12-dien-15,16-dial], the IC50 in the data set with colon cell line (HT-29) was found to be 6.3 ± 0.26 µg/mL (≈ 20.8 µM); in [1], 7.6 ± 0.23 µg/mL (≈ 25.1 µM); in data set [2], 8.9 ± 0.49 µg/mL (≈ 29.4 µM); in data set [3], 4.3 ± 1.3 µg/mL (≈ 14.2 µM); with lung cell line (A549), 19.9 ± 0.38 µg/mL (≈ 65.8 µM); in [4] it was 12.1 ± 0.35 µg/mL (≈ 40 µM). This molecule had an IC50 in [5] of 14.5 ± 0.87 µg/mL (≈ 47.9 µM).
For `COc1cccc2c1C(=O)c1c(O)c3c(c(O)c1C2=O)C[C@@](O)(C(=O)CO)C[C@@H]3O[C@H]1C[C@H](N)[C@H](O)[C@H](C)O1` [Doxo *, Doxorubicin, reference compound], the concentration for half-maximal inhibition (IC50) with colon cell line (HT-29) is 0.33 ± 0.03 µg/mL (≈ 0.607 µM); in data set [1] it was 0.24 ± 0.04 µg/mL (≈ 0.442 µM); in data set [2], 0.4 ± 0.03 µg/mL (≈ 0.736 µM); in data set [3], 0.05 ± 0.01 µg/mL (≈ 0.092 µM); in the data set on lung cell line (A549), 0.58 ± 0.01 µg/mL (≈ 1.07 µM); in [6] (Homo sapiens, span over the six cancer cell lines, read-out: IC50 values across all tested human cancer cell lines) it was 0.05 to 0.58 µg/mL (≈ 0.092 to 1.07 µM). For the same molecule, the half-maximal inhibitory concentration (IC50) in data set [4] stood at 0.18 ± 0.06 µg/mL (≈ 0.331 µM); in [5] it was 0.27 ± 0.01 µg/mL (≈ 0.497 µM).
